This is an account of results in ChEMBL document CHEMBL3763028, “Anionic fluoroquinolones as antibacterials against biofilm-producing Pseudomonas aeruginosa” (2016).

In brackets after ≈: the same amount, converted by molar mass.

Common to all, as to assay type: functional
The subject of assay [1] is Pseudomonas aeruginosa. Put plainly: Antipseudomonal activity against Pseudomonas aeruginosa PAO1 in Luria-Bertani agar assessed as bacterial growth inhibition at 10 uM by disk diffusion assay. Particulars: read-out: DIZ. (In general: Agar diffusion results depend on both activity and mobility in agar.)
For assay [2], the system named is Pseudomonas aeruginosa. As to the kind of experiment: Antipseudomonal activity against Pseudomonas aeruginosa PAO1 in Pseudomonas isolation agar assessed as bacterial growth inhibition at 10 uM by disk diffusion assay. Particulars: read-out: DIZ.
For assay [3], the system named is Pseudomonas aeruginosa. Put plainly: Antipseudomonal activity against Pseudomonas aeruginosa PAO581 in Luria-Bertani agar assessed as bacterial growth inhibition at 10 uM by disk diffusion assay. To be noted: read-out: DIZ.
The subject of assay [4] is Pseudomonas aeruginosa. As to the kind of experiment: Antipseudomonal activity against Pseudomonas aeruginosa PAO581 in Pseudomonas isolation agar assessed as bacterial growth inhibition at 10 uM by disk diffusion assay. To be noted: read-out: DIZ.
Assay [5] concerns Pseudomonas aeruginosa. Put plainly: Bactericidal activity against Pseudomonas aeruginosa PAO1 in Luria-Bertani broth by microdilution method. A general note: Broth dilution looks for growth in wells or tubes with falling amounts of substance.
In assay [6] the test system is Pseudomonas aeruginosa. Put plainly: Antipseudomonal activity against Pseudomonas aeruginosa PAO1 in Luria-Bertani broth by microdilution method.
The subject of assay [7] is Pseudomonas aeruginosa. As to the kind of experiment: Antipseudomonal activity against Pseudomonas aeruginosa PAO581 in Luria-Bertani broth by microdilution method.
Assay [8] concerns Pseudomonas aeruginosa. Put plainly: Bactericidal activity against Pseudomonas aeruginosa PAO581 in Luria-Bertani broth by microdilution method.
The subject of assay [9] is Pseudomonas aeruginosa. As to the kind of experiment: Antipseudomonal activity against Pseudomonas aeruginosa PAO581 in Pseudomonas isolation agar assessed as reduction in inhibitory zone size at 10 uM by disk diffusion assay relative to Luria-Bertani agar. Also on record: scale not given: the % may be the effect or the level left.
Assay [10] has as its system Pseudomonas aeruginosa. Put plainly: Antipseudomonal activity against Pseudomonas aeruginosa PAO1 in Pseudomonas isolation agar assessed as reduction in inhibitory zone size at 10 uM by disk diffusion assay relative to Luria-Bertani agar. Also noted: scale not given: the % may be the effect or the level left.

The MBC is the lowest tested concentration that kills the bacteria rather than only halting them. By MIC is commonly meant the least concentration at which growth counts as inhibited.

`O=C(O)CCCN1CCN(c2cc3c(cc2F)c(=O)c(C(=O)O)cn3C2CC2)CC1`: the zone of inhibition at 10 µM in the assay on Pseudomonas aeruginosa [1], with Pseudomonas aeruginosa [2], in the assay with Pseudomonas aeruginosa [3] and in the assay on Pseudomonas aeruginosa [4] was 0 mm in each case.

As to `CCn1cc(C(=O)O)c(=O)c2cc(F)c(N3CCN(C)CC3)cc21`, the zone of inhibition at 10 µM stood at 18 mm in the assay with Pseudomonas aeruginosa [1], 12 mm in the assay with Pseudomonas aeruginosa [2], 19 mm in the assay with Pseudomonas aeruginosa [3] and 14 mm in the assay on Pseudomonas aeruginosa [4].

As for `C[C@H]1COc2c(C3(N)CC3)c(F)cc3c(=O)c(C(=O)O)cn1c23`, the zone of inhibition at 10 µM came out at 25 mm with Pseudomonas aeruginosa [1], 17 mm in the assay on Pseudomonas aeruginosa [2], 30 mm in the assay on Pseudomonas aeruginosa [3] and 20 mm with Pseudomonas aeruginosa [4].

On to `O=C(O)CCCC(=O)N1CCN(c2cc3c(cc2F)c(=O)c(C(=O)O)cn3C2CC2)CC1`, for which the zone of inhibition at 10 µM with Pseudomonas aeruginosa [1], with Pseudomonas aeruginosa [2], in the assay with Pseudomonas aeruginosa [3] and in the assay on Pseudomonas aeruginosa [4] was 0 mm in each case.

On to `COc1c(N2C[C@@H]3CCCN[C@@H]3C2)c(F)cc2c(=O)c(C(=O)O)cn(C3CC3)c12`, for which the zone of inhibition at 10 µM was 24 mm in the assay with Pseudomonas aeruginosa [1], 10 mm in the assay with Pseudomonas aeruginosa [2], 31 mm in the assay with Pseudomonas aeruginosa [3] and 14 mm in the assay with Pseudomonas aeruginosa [4].

As to `CCCCN1CCN(c2cc3c(cc2F)c(=O)c(C(=O)O)cn3C2CC2)CC1`, the zone of inhibition at 10 µM in the assay with Pseudomonas aeruginosa [1] was determined as 23 mm; in the assay on Pseudomonas aeruginosa [2], 0 mm; with Pseudomonas aeruginosa [3], 13 mm; in the assay on Pseudomonas aeruginosa [4], 0 mm.

Take `COc1c(N2CCN(C(C)=O)C(C)C2)c(F)cc2c(=O)c(C(=O)O)cn(C3CC3)c12` (stereo unspecified): the zone of inhibition at 10 µM in the assay with Pseudomonas aeruginosa [1], in the assay on Pseudomonas aeruginosa [2], in the assay on Pseudomonas aeruginosa [3] and in the assay on Pseudomonas aeruginosa [4] was 0 mm in each case.

Consider `O=CN1CCN(c2cc3c(cc2F)c(=O)c(C(=O)O)cn3C2CC2)CC1`, for which the MBC against Pseudomonas aeruginosa [5] and in the assay on Pseudomonas aeruginosa [8] was 6.25 µM (≈ 2.25 µg/mL) each time. For the same molecule, the zone of inhibition at 10 µM with Pseudomonas aeruginosa [1] stood at 18 mm; in the assay with Pseudomonas aeruginosa [2], 20 mm; in the assay on Pseudomonas aeruginosa [3] it was 21 mm; in the assay on Pseudomonas aeruginosa [4], 9 mm. In addition, the MIC in the assay with Pseudomonas aeruginosa [6] and in the assay with Pseudomonas aeruginosa [7] was 3.12 µM (≈ 1.12 µg/mL) in each case.

For `CCCCCCN1CCN(c2cc3c(cc2F)c(=O)c(C(=O)O)cn3C2CC2)CC1`, the zone of inhibition at 10 µM with Pseudomonas aeruginosa [1], with Pseudomonas aeruginosa [2], in the assay on Pseudomonas aeruginosa [3] and in the assay on Pseudomonas aeruginosa [4] was 0 mm each time.

Consider `COC(=O)CN1CCN(c2cc3c(cc2F)c(=O)c(C(=O)O)cn3C2CC2)CC1`, for which the zone of inhibition at 10 µM in the assay with Pseudomonas aeruginosa [1], in the assay on Pseudomonas aeruginosa [2], with Pseudomonas aeruginosa [3] and in the assay on Pseudomonas aeruginosa [4] was 0 mm in each case.

Consider `O=C([O-])c1cn(C2CC2)c2cc(N3CCNCC3)c(F)cc2c1=O.[K+]`, for which the Activity in the assay with Pseudomonas aeruginosa [9] was determined as 32%; in the assay on Pseudomonas aeruginosa [10], 20%. Moreover, the MBC against Pseudomonas aeruginosa [5] and in the assay with Pseudomonas aeruginosa [8] was 6.25 µM throughout. The zone of inhibition at 10 µM in the assay with Pseudomonas aeruginosa [1] came to 30 mm; in the assay with Pseudomonas aeruginosa [2] it was 24 mm; in the assay on Pseudomonas aeruginosa [3], 38 mm; with Pseudomonas aeruginosa [4], 26 mm. Besides, the MIC against Pseudomonas aeruginosa [6] and with Pseudomonas aeruginosa [7] was 1.56 µM throughout.

Turning to `CC1(C)S[C@@H]2[C@H](NC(=O)[C@H](C(=O)O)c3ccsc3)C(=O)N2[C@H]1C(=O)O`, the zone of inhibition at 10 µM in the assay on Pseudomonas aeruginosa [1], in the assay on Pseudomonas aeruginosa [2], in the assay with Pseudomonas aeruginosa [3] and with Pseudomonas aeruginosa [4] was 0 mm throughout.

Consider `O=C(O)CCC(=O)N1CCN(c2cc3c(cc2F)c(=O)c(C(=O)O)cn3C2CC2)CC1`, for which the zone of inhibition at 10 µM in the assay on Pseudomonas aeruginosa [1], in the assay with Pseudomonas aeruginosa [2], with Pseudomonas aeruginosa [3] and in the assay with Pseudomonas aeruginosa [4] was 0 mm each time.

Turning to `O=C([O-])c1ccccc1C(=O)N1CCN(c2cc3c(cc2F)c(=O)c(C(=O)[O-])cn3C2CC2)CC1.[K+].[K+]`, the Activity was determined as 58% in the assay with Pseudomonas aeruginosa [9] and 53% with Pseudomonas aeruginosa [10]. Moreover, the MBC was 6.25 µM against Pseudomonas aeruginosa [5] and 12.5 µM with Pseudomonas aeruginosa [8]. The zone of inhibition at 10 µM in the assay with Pseudomonas aeruginosa [1] worked out at 23 mm; in the assay with Pseudomonas aeruginosa [2], 11 mm; in the assay with Pseudomonas aeruginosa [3] it was 31 mm; in the assay with Pseudomonas aeruginosa [4] it was 13 mm. Moreover, the minimal inhibitory concentration (MIC) against Pseudomonas aeruginosa [6] and with Pseudomonas aeruginosa [7] was 3.12 µM throughout.

As to `CC(=O)NC1(c2c(F)cc3c(=O)c(C(=O)O)cn4c3c2OC[C@@H]4C)CC1`, the zone of inhibition at 10 µM in the assay on Pseudomonas aeruginosa [1], with Pseudomonas aeruginosa [2], in the assay with Pseudomonas aeruginosa [3] and with Pseudomonas aeruginosa [4] was 0 mm each time.

For the molecule `CCn1cc(C(=O)O)c(=O)c2cc(F)c(N3CCNC(C)C3)c(F)c21` (stereo unspecified), the zone of inhibition at 10 µM stood at 23 mm in the assay with Pseudomonas aeruginosa [1], 12 mm with Pseudomonas aeruginosa [2], 29 mm in the assay on Pseudomonas aeruginosa [3] and 15 mm with Pseudomonas aeruginosa [4].

For the molecule `COc1c(N2C[C@@H]3CCCN(C(C)=O)[C@@H]3C2)c(F)cc2c(=O)c(C(=O)O)cn(C3CC3)c12`, the zone of inhibition at 10 µM in the assay on Pseudomonas aeruginosa [1], in the assay on Pseudomonas aeruginosa [2], in the assay on Pseudomonas aeruginosa [3] and in the assay on Pseudomonas aeruginosa [4] was 0 mm throughout.

For `CCn1cc(C(=O)O)c(=O)c2cc(F)c(N3CCN(C(C)=O)C(C)C3)c(F)c21` (stereo unspecified), the zone of inhibition at 10 µM in the assay on Pseudomonas aeruginosa [1], in the assay with Pseudomonas aeruginosa [2], in the assay on Pseudomonas aeruginosa [3] and with Pseudomonas aeruginosa [4] was 0 mm throughout.

With `COC(=O)CCCN1CCN(c2cc3c(cc2F)c(=O)c(C(=O)O)cn3C2CC2)CC1`, the zone of inhibition at 10 µM in the assay on Pseudomonas aeruginosa [1] was 16 mm; in the assay with Pseudomonas aeruginosa [2] it was 6 mm; in the assay on Pseudomonas aeruginosa [3] it was 17 mm; with Pseudomonas aeruginosa [4] it was 9 mm.

`O=C(O)CN1CCN(c2cc3c(cc2F)c(=O)c(C(=O)O)cn3C2CC2)CC1`: the zone of inhibition at 10 µM in the assay with Pseudomonas aeruginosa [1], with Pseudomonas aeruginosa [2], in the assay with Pseudomonas aeruginosa [3] and with Pseudomonas aeruginosa [4] was 0 mm in each case.

Consider `NC[C@H]1O[C@H](O[C@H]2[C@H](O)[C@@H](O[C@H]3O[C@H](CO)[C@@H](O)[C@H](N)[C@H]3O)[C@H](N)C[C@@H]2N)[C@H](N)C[C@@H]1O`, for which the MBC in the assay on Pseudomonas aeruginosa [5] worked out at 1.56 µM (≈ 0.729 µg/mL); against Pseudomonas aeruginosa [8], 6.25 µM (≈ 2.92 µg/mL). The zone of inhibition at 10 µM in the assay with Pseudomonas aeruginosa [1] came to 18 mm; in the assay on Pseudomonas aeruginosa [2], 13 mm; in the assay on Pseudomonas aeruginosa [3] it was 20 mm; with Pseudomonas aeruginosa [4], 17 mm. Moreover, the MIC with Pseudomonas aeruginosa [6] stood at 3.12 µM (≈ 1.46 µg/mL); against Pseudomonas aeruginosa [7] it was 0.78 µM (≈ 0.365 µg/mL).

Turning to `COc1c(N2CCNC(C)C2)c(F)cc2c(=O)c(C(=O)O)cn(C3CC3)c12` (stereo unspecified), the zone of inhibition at 10 µM with Pseudomonas aeruginosa [1] came to 29 mm; in the assay with Pseudomonas aeruginosa [2], 21 mm; with Pseudomonas aeruginosa [3], 31 mm; with Pseudomonas aeruginosa [4], 23 mm.

`CC(=O)N1CCN(c2cc3c(cc2F)c(=O)c(C(=O)O)cn3C2CC2)CC1`: the zone of inhibition at 10 µM in the assay on Pseudomonas aeruginosa [1] amounted to 10 mm; in the assay with Pseudomonas aeruginosa [2], 0 mm; in the assay with Pseudomonas aeruginosa [3], 0 mm; in the assay with Pseudomonas aeruginosa [4], 13 mm.

Take `O=C(O)c1cn(C2CC2)c2cc(N3CCN(Cc4ccccc4)CC3)c(F)cc2c1=O`: the zone of inhibition at 10 µM in the assay on Pseudomonas aeruginosa [1] was 0 mm; with Pseudomonas aeruginosa [2], 0 mm; with Pseudomonas aeruginosa [3] it was 13 mm; in the assay with Pseudomonas aeruginosa [4] it was 0 mm.
